PubChem BioAssay AID1117323
Active and inactive are the calls of the source. No rule for the calls is given here.

What follows are molecules tested on SNU-C1 viability, CellTiter-Glo ATP luminescence (assay: SNU-C1 cell viability reduction, dose response, CellTiter-Glo luminescence (AID 1117323)).

SMILES	IC50
OCCN1CCN(CC/C=C2/c3ccccc3Sc3ccc(C(F)(F)F)cc32)CC1	1030 nM
O=C1[O][Bi][O]c2ccccc21	15400 nM (inactive)
O=C(O)C1(C(=O)O)CCC1.[NH2-].[NH2-].[Pt+2]	> 20000 nM (inactive)
CCCCCCCCCCCCCC[N+](C)(C)C	5.17 nM
CC(=O)[O][Hg][c]1ccccc1	192 nM
Cc1ccc([N+](=O)[O-])[c]2c1[O][Hg]2	202 nM
CC[C@]1(O)C[C@@H]2CN(CCc3c([nH]c4ccccc34)[C@@](C(=O)OC)(c3cc4c(cc3OC)N(C)[C@H]3[C@@](O)(C(=O)OC)[C@H](OC(C)=O)[C@]5(CC)C=CCN6CC[C@]43[C@@H]65)C2)C1	> 20000 nM (inactive)
